Converted amounts (≈) assume the structure as drawn.
Assays:
hERG (KCNH2) = hERG (KCNH2) (Homo sapiens, UniProt Q12809); experiment: Inhibition of hERG expressed in CHO cells at 3 uM at -80 mV holding potential assessed as current block incubated for 3 mins by Qpatch clamp method relative to control
[1] = molecular target: T1, C-X-C chemokine receptor type 3 (Homo sapiens, UniProt P49682); experiment: Antagonist activity at human recombinant CXCR3 in human venous blood assessed as receptor internalization measured for 30 mins in presence of CXCL10 by flow cytometric analysis
T1 sequence (P49682 whole entry): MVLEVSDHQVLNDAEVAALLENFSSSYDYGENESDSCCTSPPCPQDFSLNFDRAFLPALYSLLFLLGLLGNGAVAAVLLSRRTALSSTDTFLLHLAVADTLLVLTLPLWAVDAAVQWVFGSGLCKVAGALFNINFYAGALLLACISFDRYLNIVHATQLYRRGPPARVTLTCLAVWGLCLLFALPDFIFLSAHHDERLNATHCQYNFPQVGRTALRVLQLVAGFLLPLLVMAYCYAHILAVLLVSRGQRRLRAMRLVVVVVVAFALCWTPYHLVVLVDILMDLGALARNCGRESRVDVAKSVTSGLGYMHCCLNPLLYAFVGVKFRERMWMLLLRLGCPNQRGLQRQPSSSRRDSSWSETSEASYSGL

[2] = molecular target: T1, C-X-C chemokine receptor type 3; experiment: Antagonist activity at human recombinant CXCR3 expressed in CHO-K1 cells measured after 10 mins in presence of CXCL10 by FLIPR analysis
in vivo [3] = conditions: Balb/c, mouse, po, 10 mg/kg
[4] = Lipophilicity, log D of the compound at pH 7.4; conditions: buffer
in vivo [5] = conditions: Balb/c, mouse, po, 10 mg/kg; remark: listed apart in the source
in vitro [6] = conditions: human, microsomes
[7] = Solubility of the compound in FeSSIF; conditions: simulated gi fluid
in vivo [8] = conditions: Balb/c, mouse, po, 10 mg/kg; remark: listed apart in the source
in vitro [9] = conditions: mouse, microsomes
[10] = Unbound fraction in human plasma by equilibrium based LC-MS/MS analysis
[11] = Unbound fraction in mouse plasma by equilibrium based LC-MS/MS analysis
[12] = Solubility of the compound in FaSSIF; conditions: simulated gi fluid
[13] = Half life in Wistar rat at 0.5 mg/kg, iv; conditions: in vivo
in vivo [14] = conditions: Wistar, rat, po, 2 mg/kg
in vivo [15] = conditions: Wistar, rat, po, 2 mg/kg; remark: listed apart in the source
in vivo [16] = conditions: Wistar, rat, po, 2 mg/kg; remark: listed apart in the source
[17] = Unbound fraction in rat plasma by equilibrium based LC-MS/MS analysis
in vitro [18] = conditions: rat, microsomes
[19] = Clearance in Wistar rat at 2 mg/kg, po; conditions: in vivo
[20] = Apparent permeability across apical to basolateral side in MDCK1 cells by LC-MS/MS analysis; conditions: dog, MDCK

Sequence of hERG (KCNH2) (Q12809 whole entry): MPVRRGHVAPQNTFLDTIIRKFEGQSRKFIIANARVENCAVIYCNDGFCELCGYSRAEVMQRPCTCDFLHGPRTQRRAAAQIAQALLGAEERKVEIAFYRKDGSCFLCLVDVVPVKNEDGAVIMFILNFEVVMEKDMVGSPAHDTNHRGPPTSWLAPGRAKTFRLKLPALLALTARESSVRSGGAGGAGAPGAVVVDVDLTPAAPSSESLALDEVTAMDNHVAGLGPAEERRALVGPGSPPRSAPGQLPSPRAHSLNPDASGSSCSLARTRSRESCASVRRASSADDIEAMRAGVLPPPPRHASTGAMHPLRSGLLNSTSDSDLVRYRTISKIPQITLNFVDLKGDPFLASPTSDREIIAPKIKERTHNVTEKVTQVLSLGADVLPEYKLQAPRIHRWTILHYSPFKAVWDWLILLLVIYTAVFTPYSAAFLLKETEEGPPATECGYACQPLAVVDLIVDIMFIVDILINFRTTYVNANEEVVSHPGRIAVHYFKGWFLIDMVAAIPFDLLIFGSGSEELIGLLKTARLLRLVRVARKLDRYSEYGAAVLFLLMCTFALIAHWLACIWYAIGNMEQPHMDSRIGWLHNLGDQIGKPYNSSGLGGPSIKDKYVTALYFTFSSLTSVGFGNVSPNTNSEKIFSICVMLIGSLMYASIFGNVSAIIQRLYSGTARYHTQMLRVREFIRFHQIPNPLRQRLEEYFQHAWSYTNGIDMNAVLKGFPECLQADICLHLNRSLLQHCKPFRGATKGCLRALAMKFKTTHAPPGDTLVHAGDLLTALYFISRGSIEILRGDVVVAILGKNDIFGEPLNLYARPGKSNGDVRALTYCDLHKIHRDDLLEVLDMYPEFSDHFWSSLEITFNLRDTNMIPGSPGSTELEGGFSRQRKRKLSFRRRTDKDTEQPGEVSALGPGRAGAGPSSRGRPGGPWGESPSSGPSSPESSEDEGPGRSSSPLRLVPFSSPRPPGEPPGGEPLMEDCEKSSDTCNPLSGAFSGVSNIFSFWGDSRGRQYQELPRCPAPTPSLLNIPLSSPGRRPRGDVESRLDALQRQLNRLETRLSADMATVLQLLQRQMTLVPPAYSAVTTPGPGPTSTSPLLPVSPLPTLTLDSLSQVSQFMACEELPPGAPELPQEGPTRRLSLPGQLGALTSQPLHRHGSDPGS

SMILES	IC50 [1] [nM]	IC50 [2] [nM]	microsomal CLint at 0.25 h, 1 µM (in vitro [6]) [µL/min/mg]	inhibition at 0.05 h, 3 µM (hERG (KCNH2)) [%]	further results
C[C@@H]1CN(c2sc(C(F)(F)F)nc2-c2nc3ccccc3[nH]2)CCN1C(=O)CN1C(=O)OC[C@@H]1c1ccccc1	–	–	–	83	–
Cc1nc(C)n(CC(=O)N2CCN(c3sc(C(F)(F)F)nc3-c3nc4ccc(O)c(F)c4[nH]3)C[C@H]2C)n1	–	–	–	15	–
Cc1nc(C)n(CC(=O)N2CCN(c3sc(C(F)(F)F)nc3-c3nc4ccc(OC5COC5)cc4[nH]3)C[C@H]2C)n1	–	–	–	0	–
Cc1nc(C)n(CC(=O)N2CCN(c3sc(C(F)(F)F)nc3-c3nc4ccc(C5CCN(C)CC5)cc4[nH]3)C[C@H]2C)n1	–	–	27	-5	Tmax (in vivo [3]): 180 min; logD [4]: 3.4; Cmax (in vivo [5]): 30.5 ng/mL; solubility [7]: > 1020 µg/mL; AUC (in vivo [8]): 54.6 ng·h/mL
C[C@@H]1CN(c2sc(C(F)(F)F)nc2-c2nc3ccccc3[nH]2)CCN1C(=O)CN1CCC(F)(F)CC1	–	–	–	84	–
Cc1nc(C)n(CC(=O)N2CCN(c3sc(C(F)(F)F)nc3-c3nc4ccc(N5CCOCC5)c(F)c4[nH]3)C[C@H]2C)n1	–	–	–	25	–
COC1CCN(CC(=O)N2CCN(c3sc(C(F)(F)F)nc3-c3nc4ccccc4[nH]3)C[C@H]2C)C1 (stereo partly drawn)	–	–	–	85	–
C[C@@H]1CN(c2sc(C(F)(F)F)nc2-c2nc3cc(Cl)ccc3[nH]2)CCN1C(=O)Cn1cnc2cccnc21	38.5	2.8	–	83	–

Further lines, with some results ahead:

IC50 [1] [nM]	IC50 [2] [nM]	microsomal CLint at 0.25 h, 1 µM (in vitro [6]) [µL/min/mg]	SMILES	inhibition at 0.05 h, 3 µM (hERG (KCNH2)) [%]	further results
307	2.2	–	Cc1nc(C)n(CC(=O)N2CCN(c3sc(C(F)(F)F)nc3-c3nc4ccc(C5CCNCC5)cc4[nH]3)C[C@H]2C)n1	5	–
502	23	–	C[C@@H]1CN(c2sc(C(F)(F)F)nc2-c2nc3ccccc3[nH]2)CCN1C(=O)Cc1cccc2cccnc12	78	–
368	5.7	19	Cc1nc(C)n(CC(=O)N2CCN(c3sc(C(F)(F)F)nc3-c3nc4ccc(N5CCOCC5)cc4[nH]3)C[C@H]2C)n1	4	Tmax (in vivo [3]): 15 min; microsomal CLint at 0.25 h, 1 µM (in vitro [9]): 18 µL/min/mg; logD [4]: 2; Cmax (in vivo [5]): 4320 ng/mL; solubility [7]: 963 µg/mL (≈ 1630 µM); AUC (in vivo [8]): 4110 ng·h/mL
191	13	44	C[C@@H]1CN(c2sc(C(F)(F)F)nc2-c2nc3ccccc3[nH]2)CCN1C(=O)Cn1cccn1	54	Tmax (in vivo [3]): 15 min; microsomal CLint at 0.25 h, 1 µM (in vitro [9]): 218 µL/min/mg; logD [4]: 3.4; Cmax (in vivo [5]): 670 ng/mL; fraction unbound [10]: 0.052; fraction unbound [11]: 0.026; solubility [12]: 352 µg/mL (≈ 740 µM); solubility [7]: 734 µg/mL (≈ 1540 µM); AUC (in vivo [8]): 720 ng·h/mL
123	3.3	18	Cc1nc(C)n(CC(=O)N2CCN(c3sc(C(F)(F)F)nc3-c3nc4ccc(C5CCOCC5)cc4[nH]3)C[C@H]2C)n1	18	Tmax (in vivo [3]): 18 min; microsomal CLint at 0.25 h, 1 µM (in vitro [9]): 46 µL/min/mg; logD [4]: 3.7; Cmax (in vivo [5]): 1980 ng/mL; solubility [7]: > 1000 µg/mL; AUC (in vivo [8]): 545 ng·h/mL
–	4.6	131	C[C@@H]1CN(c2sc(C(F)(F)F)nc2-c2nc3ccc(CO)cc3[nH]2)CCN1C(=O)Cn1cnc2cccnc21	12	–
6890	150	–	COCCn1c(-c2nc(C(F)(F)F)sc2N2CCN(C(=O)Cn3cccn3)[C@H](C)C2)nc2ccccc21	2	–
237	3.2	30	Cc1nc(C)n(CC(=O)N2CCN(c3sc(C(F)(F)F)nc3-c3nc4ccccc4[nH]3)C[C@H]2C)n1	45	Tmax (in vivo [3]): 30 min; half-life [13]: 180 min; microsomal CLint at 0.25 h, 1 µM (in vitro [9]): 21 µL/min/mg; bioavailability (in vivo [14]): 0.5%; logD [4]: 3.3; Tmax (in vivo [15]): 30 min; Cmax (in vivo [5]): 5090 ng/mL; fraction unbound [10]: 0.113; AUC (in vivo [16]): 2970 ng·h/mL; fraction unbound [17]: 0.074; microsomal CLint at 0.25 h, 1 µM (in vitro [18]): 39 µL/min/mg; fraction unbound [11]: 0.041; solubility [12]: 440 µg/mL (≈ 872 µM); CL/F [19]: 6 mL/min/kg; solubility [7]: > 850 µg/mL; AUC (in vivo [8]): 10800 ng·h/mL; Papp A→B [20]: 12 ×10⁻⁶ cm/s
2470	31	–	Cc1nnc(CC(=O)N2CCN(c3sc(C(F)(F)F)nc3-c3nc4ccccc4[nH]3)C[C@H]2C)o1	36	–
3560	110	–	C[C@@H]1CN(c2sc(C(F)(F)F)nc2-c2nc3ccccc3n2C)CCN1C(=O)Cn1cccn1	46	–
